Test results as given in ChEMBL document CHEMBL1201862, “PubChem BioAssay data set” (2004).
The source made the active and inactive calls.

Key:
[1] = target: DNA dC->dU-editing enzyme APOBEC-3A (Homo sapiens, UniProt P31941); assay: Dose Response confirmation of small molecule APOBEC3A DNA Deaminase Inhibitors via a fluorescence-based single-stranded DNA deaminase assay. [Related pubchem assays (depositor defined):AID493011, AID493024]; assay type: functional
[2] = target: DNA dC->dU-editing enzyme APOBEC-3G (Homo sapiens, UniProt Q9HC16); assay type: functional;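 note: Dose-response counterscreen measuring inhibition of APOBEC3G DNA deaminase activity, run while confirming APOBEC3A inhibitors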
[3] = target: T1, Carboxy-terminal domain RNA polymerase II polypeptide A small phosphatase 1 (Homo sapiens, UniProt Q9GZU7); assay: inhibitors of CTDSP1, concentration-response testing, biochemical assay, absorbance-based, actives from ultra-high-throughput screening (AID 540297); assay type: functional
T1 sequence (Q9GZU7 whole entry): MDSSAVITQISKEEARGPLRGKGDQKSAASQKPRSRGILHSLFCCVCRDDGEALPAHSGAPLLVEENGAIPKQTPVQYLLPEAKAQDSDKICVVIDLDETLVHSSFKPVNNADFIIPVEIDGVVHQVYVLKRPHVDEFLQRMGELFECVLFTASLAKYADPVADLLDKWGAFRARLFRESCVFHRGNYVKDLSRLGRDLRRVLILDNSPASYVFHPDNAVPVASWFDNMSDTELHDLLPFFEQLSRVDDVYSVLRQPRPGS

Protein Tat = Protein Tat (Human immunodeficiency virus type 1 group M subtype B (isolate HXB2)(HIV-1), UniProt P04608); assay type: functional;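 note: tat binding to TAR RNA read out by fluorescence polarization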
[4] = inhibitors of intracellular T. cruzi replication, confirmation, NIH3T3 host cells, beta-gal luminescence (AID 2044); assay type: functional, cell-based;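 note: intracellular parasites grown in NIH/3T3 mouse fibroblasts as host cells; luminescent beta-galactosidase reporter signal from transgenic T. cruzi replicating inside host cells; inhibitors lower the luminescence signal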
[5] = cytotoxicity toward NIH3T3 fibroblasts, dose response, counter-screen, cell-based, ATP luminescence, mouse fibroblasts (AID 2010); assay type: functional;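 note: cells exposed to compound for about 90 hours before reading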
[6] = target: T2, Sentrin-specific protease 8 (Homo sapiens, UniProt Q96LD8); assay type: functional
T2 sequence (Q96LD8 whole entry): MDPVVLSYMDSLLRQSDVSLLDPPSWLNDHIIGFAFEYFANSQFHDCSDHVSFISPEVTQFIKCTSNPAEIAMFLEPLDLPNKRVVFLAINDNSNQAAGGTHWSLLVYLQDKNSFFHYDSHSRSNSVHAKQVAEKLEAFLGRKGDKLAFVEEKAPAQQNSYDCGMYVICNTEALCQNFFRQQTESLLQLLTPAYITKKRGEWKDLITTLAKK

[7] = target: T2, Sentrin-specific protease 8; assay type: functional; remark: listed apart in the source
cells [8] = assay: cells
[9] = P. falciparum Dd2 growth inhibitors, dose response, SYBR Green, dry powder samples, set 9 (AID 1159568); assay type: functional, cell-based
[10] = HEp-2 cell cytotoxicity, dose response, cytotoxicity control for RSV inhibitor project, HTS (AID 2410); assay type: functional; conditions: human respiratory syncytial virus
[11] = target: E3 ubiquitin-protein ligase Mdm2 (Homo sapiens, UniProt Q00987); assay: enhancers of MDM2-luciferase reporter signal, concentration-effect titration, project on inhibitors of MDM2 ubiquitin ligase, cellular assay, luminescent readout, 384-well plate format (AID 1394); assay type: functional;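 note: MDM2 E3 inhibitors raise luminescence so EC50 is for signal enhancement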
[12] = insulin promoter down-regulators in MIN6 cells, imaging, high-content screening, mouse beta cells (AID 1628); assay type: functional
[13] = cytotoxicity in MIN6 insulinoma cells, dose response, cytotoxicity control, cell-based, mouse insulinoma (AID 2122); assay type: functional;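 note: confirmatory high-throughput counterscreen run to flag cytotoxic compounds; mouse MIN-6 beta cells carrying an insulin promoter eGFP reporter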
[14] = Luminescence Cell-Based Dose Retest to Confirm Inhibitors of Cancer Stem Cells. [Related pubchem assays (depositor defined):AID2717, AID2721]; assay type: functional; conditions: Homo sapiens
Vero = assay: cells; assay type: functional; conditions: Chlorocebus sabaeus
cells [15] = assay type: functional, cell-based
[16] = target: T3, Nuclear receptor subfamily 0 group B member 1 (Homo sapiens, UniProt P51843); assay type: functional, cell-based;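 note: HEK293T cells transfected with SF-1 and DAX-1 plus StAR promoter luciferase reporter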
T3 sequence (P51843 whole entry): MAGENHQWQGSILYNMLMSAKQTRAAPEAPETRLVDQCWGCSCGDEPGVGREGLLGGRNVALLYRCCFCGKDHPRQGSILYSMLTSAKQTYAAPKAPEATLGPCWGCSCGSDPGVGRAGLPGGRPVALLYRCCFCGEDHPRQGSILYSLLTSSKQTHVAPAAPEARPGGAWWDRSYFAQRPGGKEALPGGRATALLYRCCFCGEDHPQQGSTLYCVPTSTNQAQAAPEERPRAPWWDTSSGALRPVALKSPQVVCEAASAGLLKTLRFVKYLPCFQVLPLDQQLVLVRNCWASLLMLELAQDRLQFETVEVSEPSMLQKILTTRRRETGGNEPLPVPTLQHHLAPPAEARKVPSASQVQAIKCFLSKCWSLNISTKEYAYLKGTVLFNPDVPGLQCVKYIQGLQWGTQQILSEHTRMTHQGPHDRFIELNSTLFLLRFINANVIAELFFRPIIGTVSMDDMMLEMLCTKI

[17] = Late-stage results from the probe development effort to identify antagonists of arginine vasopressin receptor 1a (AVPR1a): fluorescence-based cell-based dose response AVPR1a inhibition assay.; assay type: functional
Vasopressin V1b receptor = Vasopressin V1b receptor (Homo sapiens, UniProt P47901); assay: Late-stage results from the probe development effort to identify antagonists of arginine vasopressin receptor 1a (AVPR1a): fluorescence-based cell-based dose response AVPR1b inhibition counterscreen assay.; assay type: functional
Vasopressin V2 receptor = Vasopressin V2 receptor (Homo sapiens, UniProt P30518); assay: Late-stage results from the probe development effort to identify antagonists of arginine vasopressin receptor 1a (AVPR1a): fluorescence-based cell-based dose response AVPR2 inhibition counterscreen assay.; assay type: functional
[18] = Late-stage results from the probe development effort to identify antagonists of arginine vasopressin receptor 1a (AVPR1a): fluorescence-based cell-based dose response OXTR inhibition counterscreen assay.; assay type: functional
[19] = Concentration-dependent survival of SW480 colon cancer line, luminescence detection with CellTiter-Glo, half-maximal inhibitory concentration (AID 1117338); assay type: functional
[20] = RKO cell viability reduction, dose response, CellTiter-Glo luminescence (AID 1117322); assay type: functional
[21] = cytotoxicity toward HCT116 cells – cell-based, CellTiter-Glo luminescence, IC50, dose response (AID 1117332); assay type: functional; conditions: HCT-116
[22] = SNU-C1 cell viability reduction, dose response, CellTiter-Glo luminescence (AID 1117323); assay type: functional, cell-based
[23] = cytotoxicity toward Colo320 cells – cell-based, CellTiter-Glo luminescence, IC50, dose response (AID 1117334); assay type: functional; conditions: COLO 320
[24] = cytotoxicity toward HT-29 cells – cell-based, CellTiter-Glo luminescence, IC50, dose response (AID 1117330); assay type: functional
[25] = CellTiter-Glo luminescent dose response of DLD-1 viability loss (AID 1117352); assay type: functional
[26] = HCT116 cell viability decrease, GSK3B pretreatment – CellTiter-Glo, IC50, dose response (AID 1117339); assay type: functional; conditions: HCT-116
[27] = half-maximal inhibitory concentration for glucagon-like peptide-1 release, STC-1 cell line, dose-response (AID 1117345); assay type: functional, cell-based
[28] = Glucagon-like peptide 1 release potency, NCI-H716 cell line, dose-response, half-maximal inhibitory concentration (AID 1117344); assay type: functional, cell-based
[29] = target: DNA damage-inducible transcript 3 protein (Mus musculus, UniProt P35639); assay type: functional, Cricetulus griseus
[30] = inhibitors of Vif binding to APOBEC3G peptide, primary screen, biochemical, TR-FRET, GST-Vif 1-94, biotin-A3G peptide, dose response retest (AID 1117319); assay type: functional;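 note: TR-FRET signal of purified GST-Vif binding a biotinylated A3G peptide; inhibitors lower the FRET signal by blocking Vif and A3G binding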
[31] = Vero cell cytotoxicity, dose response, cytotoxicity control for Vif-APOBEC3G degradation inhibitor project, Vero cells (AID 1117358); assay type: functional; conditions: Human immunodeficiency virus 1, Vero
[32] = THP-1 cell cytotoxicity, dose response, cytotoxicity control for Vif-APOBEC3G degradation inhibitor project, THP-1 cells (AID 1117359); assay type: functional; conditions: Human immunodeficiency virus 1, THP-1
[33] = Artemis endonuclease inhibitor potency, dose response, biochemical, fluorescence intensity (AID 720701); assay type: functional;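 note: Artemis endonuclease enzyme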
[34] = P. falciparum late gametocyte killing, dose response, luminescence (AID 1117278); assay type: functional, cell-based;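 note: gametocytes exposed to compound for 24 hours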
[35] = Jurkat T cell cytotoxicity, dose response, cytotoxicity control for P. falciparum gametocyte viability project, luminescence (AID 1117277); assay type: functional, cell-based;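 note: potency reflects loss of cellular ATP meaning fewer viable cells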

Chain of DNA damage-inducible transcript 3 protein (P35639 whole entry): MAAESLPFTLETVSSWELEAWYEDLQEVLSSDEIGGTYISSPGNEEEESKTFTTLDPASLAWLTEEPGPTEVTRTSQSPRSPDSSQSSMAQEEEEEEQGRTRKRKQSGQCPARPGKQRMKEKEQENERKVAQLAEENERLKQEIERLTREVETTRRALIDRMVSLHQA
Chain of DNA dC->dU-editing enzyme APOBEC-3G (Q9HC16 whole entry, the tested form may be a part): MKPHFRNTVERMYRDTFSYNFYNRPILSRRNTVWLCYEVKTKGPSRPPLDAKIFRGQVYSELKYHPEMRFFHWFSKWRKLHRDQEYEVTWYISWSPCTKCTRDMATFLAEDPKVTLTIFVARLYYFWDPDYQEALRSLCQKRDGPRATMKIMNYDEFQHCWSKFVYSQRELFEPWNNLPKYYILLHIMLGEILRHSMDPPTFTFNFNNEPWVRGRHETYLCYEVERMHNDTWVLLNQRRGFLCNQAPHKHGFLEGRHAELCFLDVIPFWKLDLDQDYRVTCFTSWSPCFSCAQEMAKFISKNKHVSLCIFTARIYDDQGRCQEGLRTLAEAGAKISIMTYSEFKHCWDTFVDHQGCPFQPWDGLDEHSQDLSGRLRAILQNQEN
Chain of Vasopressin V2 receptor (P30518 whole entry): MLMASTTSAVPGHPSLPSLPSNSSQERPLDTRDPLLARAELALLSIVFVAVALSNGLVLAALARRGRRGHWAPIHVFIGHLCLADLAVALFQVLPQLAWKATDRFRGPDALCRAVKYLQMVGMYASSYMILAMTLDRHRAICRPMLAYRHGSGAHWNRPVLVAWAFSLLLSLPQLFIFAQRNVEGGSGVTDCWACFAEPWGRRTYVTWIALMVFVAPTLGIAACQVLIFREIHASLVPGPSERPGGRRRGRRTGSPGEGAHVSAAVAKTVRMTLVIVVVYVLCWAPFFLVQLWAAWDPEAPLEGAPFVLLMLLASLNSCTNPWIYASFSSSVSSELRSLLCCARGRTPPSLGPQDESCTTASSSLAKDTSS
Chain of Vasopressin V1b receptor (P47901 whole entry): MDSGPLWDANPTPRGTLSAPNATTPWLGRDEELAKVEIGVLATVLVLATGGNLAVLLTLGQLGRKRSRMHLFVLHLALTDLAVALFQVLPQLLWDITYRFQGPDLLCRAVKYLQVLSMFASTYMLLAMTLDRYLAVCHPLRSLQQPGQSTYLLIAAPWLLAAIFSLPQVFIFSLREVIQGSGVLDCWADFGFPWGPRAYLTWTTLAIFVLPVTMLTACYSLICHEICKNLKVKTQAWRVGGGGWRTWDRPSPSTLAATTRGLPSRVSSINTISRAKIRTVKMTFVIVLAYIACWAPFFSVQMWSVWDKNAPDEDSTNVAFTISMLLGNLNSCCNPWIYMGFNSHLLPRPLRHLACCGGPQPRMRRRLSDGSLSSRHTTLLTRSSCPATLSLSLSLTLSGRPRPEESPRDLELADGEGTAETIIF
Chain of E3 ubiquitin-protein ligase Mdm2 (Q00987 whole entry): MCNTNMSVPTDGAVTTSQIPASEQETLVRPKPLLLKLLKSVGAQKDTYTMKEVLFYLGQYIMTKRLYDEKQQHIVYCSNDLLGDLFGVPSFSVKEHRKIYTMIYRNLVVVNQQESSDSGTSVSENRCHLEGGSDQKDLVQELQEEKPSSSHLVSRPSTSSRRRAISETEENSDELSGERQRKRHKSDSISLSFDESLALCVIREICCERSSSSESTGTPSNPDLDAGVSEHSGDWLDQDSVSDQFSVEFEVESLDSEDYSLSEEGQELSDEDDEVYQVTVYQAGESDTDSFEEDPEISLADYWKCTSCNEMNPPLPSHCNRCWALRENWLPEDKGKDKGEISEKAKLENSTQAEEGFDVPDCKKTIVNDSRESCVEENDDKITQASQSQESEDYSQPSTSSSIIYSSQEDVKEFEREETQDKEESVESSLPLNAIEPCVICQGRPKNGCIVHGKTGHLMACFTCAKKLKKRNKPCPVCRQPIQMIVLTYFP
Chain of Protein Tat (P04608 whole entry): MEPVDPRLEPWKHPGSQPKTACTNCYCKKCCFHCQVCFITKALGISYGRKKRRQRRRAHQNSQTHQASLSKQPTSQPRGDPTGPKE
Chain of DNA dC->dU-editing enzyme APOBEC-3A (P31941 whole entry): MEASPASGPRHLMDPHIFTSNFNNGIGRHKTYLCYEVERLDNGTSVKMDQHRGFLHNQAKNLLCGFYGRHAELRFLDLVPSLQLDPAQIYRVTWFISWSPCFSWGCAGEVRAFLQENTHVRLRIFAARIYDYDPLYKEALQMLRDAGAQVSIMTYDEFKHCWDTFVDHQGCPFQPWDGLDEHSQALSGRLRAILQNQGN

SMILES: CCOC(=O)C1=C(COC(=O)/C=C/c2ccco2)NC(=O)NC1C (stereo unspecified)
- IC50 [1]: 15.9 µM (active)
- IC50 [2]: 28.4 µM (active)
- IC50 [3]: 4.25 µM (active)
- IC50 (Protein Tat): > 100 µM (active)

SMILES: CN(C)CCN(C(=O)c1ccc(N2C(=O)CCC2=O)cc1)c1nc2cc3c(cc2s1)OCO3
- EC50 [4]: < 0.1 µM (active)
- EC50 [5]: > 60 µM (not active)
- IC50 [6]: 33.5 µM (active)
- IC50 [7]: 24.4 µM (active)
- EC50 (cells [8]): 0.102 µM (active)

SMILES: O=C(NCC[C@H]1CC[C@H](NC(=O)c2ccccc2F)[C@@H](CO)O1)c1cnccn1
- AC50 [9]: 11 µM (active)

SMILES: COc1ccc(/C=C/C(=O)Nc2ccc(C34CC5CC(CC(O)(C5)C3)C4)cc2)cc1OC
- CC50 [10]: 1.48 µM (active)
- EC50 [11]: 3.12 µM (not active)
- IC50 [12]: 2.17 µM (active)
- IC50 [13]: 5.21 µM (active)
- AC50 [14]: 0.647 µM (active)
- CC50 (Vero): 20.9 µM (active)
- IC50 (cells [15]): > 67.5 µM (inactive)
- IC50 [16]: > 0.834 µM (active)

SMILES: Cc1cccc(N2CCC(C(=O)N(CC3CC3)c3ccc(Cl)cc3)CC2)n1
- IC50 [17]: 0.0248 µM (active)
- IC50 (Vasopressin V1b receptor): 17.6 µM (inactive)
- IC50 (Vasopressin V2 receptor): 6.1 µM (active)
- IC50 [18]: 5.1 µM (active)

SMILES: Cc1cccc(Nc2cc(Cl)nc(SCC(=O)O)n2)c1C [PIRINIXIC ACID]
- IC50 [19]: > 20 µM (inactive)
- IC50 [20]: > 20 µM (inactive)
- IC50 [21]: > 20 µM (inactive)
- IC50 [22]: > 20 µM (inactive)
- IC50 [23]: > 20 µM (inactive)
- IC50 [24]: > 20 µM (inactive)
- IC50 [25]: > 20 µM (inactive)
- IC50 [26]: > 20 µM (inactive)

SMILES: Cc1nnc2n1-c1sc(CCc3ccc(CC(C)C)cc3)cc1C(c1ccccc1Cl)=NC2C (stereo unspecified) [ISRAPAFANT]
- IC50 [27]: > 40 µM (inactive)
- IC50 [28]: 24.7 µM (inactive)

SMILES: Oc1ccc(Cl)cc1-c1cc(-c2ccccc2)[nH]n1
- Absolute IC50 (CHOP) [29]: 10 µM
- IC50 [30]: > 100 µM (active)
- CC50 [31]: > 40 µM (active)

SMILES: COc1cccc(/C=N/NC(N)=S)c1OCc1ccccc1Cl
- EC50 [4]: 1.18 µM (active)
- EC50 [5]: > 30 µM (not active)
- CC50 [32]: > 40 µM (active)

SMILES: O=C(NC(C(=O)N/N=C/c1c2ccccc2cc2ccccc12)c1nnc(O)c2ccccc12)c1ccccc1 (stereo unspecified)
- IC50 [33]: > 20 µM (inactive)

SMILES: COc1ccc(CCN(C)CCCN2CC(c3ccccc3)CC2=O)cc1OC (stereo unspecified)
- IC50 [34]: > 109 µM (inactive)
- IC50 [35]: > 83.3 µM (inactive)
